IC50 and melting point data for seven compounds are collected here from US6936609B2, “Imidazotriazines for use as phosphodiesterase inhibitors” (Bayer HealthCare AG, priority 2001, dated 2005).

One series deals with T1, PDE 10A (Homo sapiens, UniProt Q9Y233).
T1 construct: is expressed recombinantly in full length in Sf9 insect cells; made in house; host or cells: Sf9 insect cells (Bac-to-Bac baculovirus system); lysate supernatant used as the enzyme preparation
Nature of the series: Inhibition of PDE 10A (in vitro enzyme inhibition test). Particulars: recombinant full-length PDE10A expressed in Sf9 insect cells; substrate [5',8-3H] adenosine 3',5'-cyclic phosphate; 60 min at room temperature; scintillation proximity beads. The format is biochemical. Here is the method: PDE10A (WO 01/29 199, FIG. 1A) is expressed recombinantly in full length in Sf9 insect cells (Invitrogen, Carlsbad, Calif.) with the aid of the Bac-to-Bac™ Baculovirus expression system of Life Technologies (Gaithersburg, Md.). 48 h after the infection, the cells are harvested and suspended in 20 ml (per 1 l of culture) of lysis buffer (50 mM tris HCl, pH 7.4, 50 mM NaCl, 1 mM MgCl2, 1.5 mM EDTA, 10% glycerol plus 20 μl of Protease Inhibitor Cocktail Set III [CalBiochem, La Jolla, Calif. USA]). The cells are treated at 4° C. for 1 minute with ultrasound and subsequently centrifuged at 10000 rpm for 30 minutes at 4° C. The supernatant (PDE10A preparation) was collected and stored at −20° C.
The test substances are dissolved and serially diluted in 100% DMSO for the determination of their in vitro action on PDE 10A. Typically, dilution series of 200 μM to 1.6 μM are prepared (resulting final concentrations in the test: 4 μM to 0.032 μM). In each case, 2 μl of the diluted substance solutions are introduced into the wells of microtitre plates (Isoplate; Wallac Inc., Atlanta, Ga.). 50 μl of a dilution of the PDE10A preparation described above are subsequently added. The dilution of the PDE10A preparation is chosen such that during the later incubation less than 70% of the substrate is reacted (typical dilution: 1:10000; dilution buffer: 50 mM tris/HCl pH 7.5, 8.3 mM MgCl2, 1.7 mM EDTA, 0.2% BSA). The substrate, [5′,8-^3H] adenosine 3′, 5′-cyclic phosphate (1 μCi/μl; Amersham Pharmacia Biotech., Piscataway, N.J.) is diluted 1:2000 to a concentration of 0.0005 μCi/μl with assay buffer (50 mM tris/HCl pH 7.5, 8.3 mM MgCl2, 1.7 mM EDTA). The enzyme reaction is finally started by addition of 50 μl (0.025 μCi) of the diluted substrate. The test batches are incubated at room temperature for 60 min and the reaction is stopped by addition of 25 μl of a suspension containing 18 mg/ml of Yttrium Scintillation Proximity Beads (Amersham Pharmacia Biotech., Piscataway, N.J.). The microtitre plates are sealed using a film and allowed to stand at room temperature for 60 min. The plates are subsequently measured for 30 s per well in a Microbeta scintillation counter (Wallac Inc., Atlanta, Ga.). IC50 values are determined with the aid of graphic plotting of the substance concentration against the percentage inhibition.
In general terms: Scintillation proximity formats need no separation of bound from free tracer.

T1 sequence (Q9Y233 1-779 isoform Q9Y233-1): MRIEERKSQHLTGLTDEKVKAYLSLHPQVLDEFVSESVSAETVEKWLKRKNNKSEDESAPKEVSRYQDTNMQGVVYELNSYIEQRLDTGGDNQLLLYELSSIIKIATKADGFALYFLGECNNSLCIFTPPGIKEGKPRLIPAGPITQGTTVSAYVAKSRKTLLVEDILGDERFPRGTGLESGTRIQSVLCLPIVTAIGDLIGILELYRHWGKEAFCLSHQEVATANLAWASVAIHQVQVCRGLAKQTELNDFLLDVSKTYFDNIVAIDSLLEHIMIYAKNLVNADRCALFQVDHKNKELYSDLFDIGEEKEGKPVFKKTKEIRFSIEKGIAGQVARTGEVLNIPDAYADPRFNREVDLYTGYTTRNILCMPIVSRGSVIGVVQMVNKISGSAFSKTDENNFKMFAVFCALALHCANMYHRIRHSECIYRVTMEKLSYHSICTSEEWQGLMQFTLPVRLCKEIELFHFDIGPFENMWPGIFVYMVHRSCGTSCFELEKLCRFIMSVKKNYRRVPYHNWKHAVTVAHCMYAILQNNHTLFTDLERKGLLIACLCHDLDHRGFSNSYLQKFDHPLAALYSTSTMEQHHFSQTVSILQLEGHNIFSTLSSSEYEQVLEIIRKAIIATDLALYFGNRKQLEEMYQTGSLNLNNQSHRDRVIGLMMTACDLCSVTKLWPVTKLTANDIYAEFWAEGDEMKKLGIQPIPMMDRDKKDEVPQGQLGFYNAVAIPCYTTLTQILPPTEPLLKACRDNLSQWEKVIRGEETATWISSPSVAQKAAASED

In turn, `COc1cc(Nc2nc(-c3ccc(Br)cc3)nn3c(C)nc(C)c23)cc(OC)c1OC` [Example 48, N-[2-(4-Bromophenyl)-5,7-dimethylimidazo[5,1-f][1,2,4]triazin-4-yl]-N-(3,4,5-trimethoxyphenyl)amine] registered a melting point of 219 to 220 °C. In addition, the IC50 on PDE 10A was determined as 68 nM.
For `COc1ccc(Nc2nc(-c3ccc(OC)c(OC)c3)nn3c(C4CCCC4)nc(C)c23)c(OC)c1` [Example 18, N-[7-Cyclopentyl-2-(3,4-dimethoxyphenyl)-5-methylimidazo[5,1-f][1,2,4]triazin-4-yl]-N-(2,4-dimethoxyphenyl)amine], in that order: 244 °C and 91 nM.
For `COc1cc(Nc2nc(-c3ccc(C)cc3)nn3c(C)nc(C)c23)cc(OC)c1OC` [Example 53, N-[5,7-Dimethyl-2-(4-methylphenyl)imidazo[5,1-f][1,2,4]triazin-4-yl]-N-(3,4,5-trimethoxyphenyl)amine], in that order: 212 to 214 °C and 45 nM.
`COc1ccc(-c2nc(SCc3cccnc3)c3c(C)nc(C4CCCC4)n3n2)cc1OC` [Example 12, 7-Cyclopentyl-2-(3,4-dimethoxyphenyl)-5-methyl-4-[(3-pyridinylmethyl)sulphanyl]-imidazo[5,1-f][1,2,4]triazine]: the IC50 on PDE 10A was found to be 460 nM.
On the same count and under the same terms, with `COc1ccc(-c2nc(Nc3cc(OC)c(OC)c(OC)c3)c3c(C)nc(C4CCCC4)n3n2)cc1S(=O)(=O)N1CCOCC1` [Example 24, 7-Cyclopentyl-2-[4-methoxy-3-(4-morpholinylsulphonyl)phenyl]-5-methyl-N-(3,4,5-trimethoxyphenyl)imidazo[5,1-f][1,2,4]triazin-4-amine] the figure was 13 nM; with `COc1ccc(Nc2nc(-c3ccc(OC)c(OC)c3)nn3c(C4CCCC4)nc(C)c23)cc1Cl` [Example 16, N-(3-Chloro-4-methoxyphenyl)-7-cyclopentyl-2-(3,4-dimethoxyphenyl)-5-methyl-imidazo[5,1-f][1,2,4]triazin-4-amine], 210 nM; with `COc1cc(CNc2nc(-c3ccc(OC)c(OC)c3)nn3c(C)nc(C)c23)cc(OC)c1` [Example 3, N-(3,5-Dimethoxybenzyl)-2-(3,4-dimethoxyphenyl)-5,7-dimethylimidazo[5,1-f]-[1,2,4]triazin-4-amine], 360 nM.

In general, IC50 refers to the concentration at which inhibition is half-maximal. For orientation: melting point means the temperature of the solid-liquid transition.
